Measured values reported in US12649980B2, “Three-dimensional surface for protein and small molecule microarrays” (The Johns Hopkins University, priority 2019, dated 2026).

Experiments:
DLD1 GLUT1 KO = experiment: [3H]-2DG uptake in DLD1 GLUT1 knockout cells; assay type: cell-based
Description: (§1) The inhibitory activity of compounds on glucose transport was analyzed by measuring the cell uptake of [3H]-2DG as previously described. Ulanovskaya et al., Chem. Biol. 2011, 18, 222-230. Briefly, cells were washed twice and incubated in low-glucose medium for 10 min. Cells were added drugs and incubated for another 10 min before adding [3H]-2DG. After 10 min incubation with [3H]-2DG, cells were washed twice and lysed with 0.2 N NaOH plus 0.2% SDS. The cell lysate was transferred to a new tube containing 1 mL of optiphase supermix. Glucose uptake was quantified with a scintillation counter.

Jurkat T [1] = experiment: Alamar blue cell proliferation assay, Jurkat T; assay type: cell-based, human; conditions: 72 h, read-out: IC50 Assay B (Alamar blue cell proliferation)
Description: (§2) The effects of RgA on cell growth, survival, and cell death was then determined. […] Treatment with 5 μM of RgA caused an increase in G1 phase by approximately 23% in comparison to control and approximately 7% and 17% decreases in cells in S and G2/M phases, respectively. The induction in G1 phase cell cycle arrest by RgA is dose-dependent (FIG. 5A, FIG. 16). […] Jones and Thompson, Genes Dev. 2009, 23, 537-548. […] The IC50 values of RgA against several human cancer cell lines also was determined using the alamar blue cell proliferation assay.
(§3) Cells were seeded into a 96-well plate (Costar) in 180 μL culture media. After an overnight recovery, drugs were added and incubated for 72 h. After drug incubation, cells were added with 20 μL of alamar blue reagent and the plates were incubated at 37° C. for 6 h before reading the fluorescence (544 nm Ex/590 nm Em) with a plate reader. GraphPad Prism (v4.03) software was used to determine IC50 values using a four parameter logistic regression.

RKO = experiment: Alamar blue cell proliferation assay, RKO; assay type: cell-based, human; conditions: 72 h, read-out: IC50 Assay B (Alamar blue cell proliferation)
Description: as §2, §3

GLUT1 [2] = target: T1, GLUT1 (Homo sapiens, UniProt P11166); experiment: biotin-RgA pull-down and biotin probe competition binding assay, GLUT1; conditions: competition with 100 nM biotin-RgA probe, HEK293T GLUT1 lysate, Western blot densitometry; read-out: estimated Kd for GLUT1
T1 construct: The full-length human SLC2A1, SLC2A3, and SLC2A4 genes were PCR amplified and inserted into pLenti6M vector 2; expressed in transfected cells
T1 sequence (P11166 1-492): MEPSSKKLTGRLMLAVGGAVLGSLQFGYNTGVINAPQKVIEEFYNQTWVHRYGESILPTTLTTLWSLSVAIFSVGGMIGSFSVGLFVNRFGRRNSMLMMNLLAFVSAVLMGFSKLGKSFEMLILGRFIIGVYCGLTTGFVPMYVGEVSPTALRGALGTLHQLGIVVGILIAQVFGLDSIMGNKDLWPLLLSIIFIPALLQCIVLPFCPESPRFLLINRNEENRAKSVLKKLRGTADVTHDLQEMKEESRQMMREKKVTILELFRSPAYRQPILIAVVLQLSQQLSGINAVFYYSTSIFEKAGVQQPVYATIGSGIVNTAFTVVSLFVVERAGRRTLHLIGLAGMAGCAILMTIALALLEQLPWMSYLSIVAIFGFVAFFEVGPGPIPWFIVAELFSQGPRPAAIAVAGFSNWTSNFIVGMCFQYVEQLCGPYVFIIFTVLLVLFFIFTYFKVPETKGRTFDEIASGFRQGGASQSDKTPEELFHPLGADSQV
Description: Next, the binding affinity of RgA for GLUT1 was determined using a RgA biotin pull-down assay. A biotin-RgA conjugate was synthesized by tethering the biotin moiety through carbon:carbon double bond in the FKBP-binding domain of RgA (FIG. 13). […] Using the biotin-RgA conjugate, a pulldown experiment with cell lysate containing detergent-solubilized GLUT1 protein prepared from HEK293T cells overexpressing GLUT1 was performed, followed by Western blot analysis with a GLUT1-specific antibody.
The estimation of Kd value for RgA was determined with the biotin probe competition binding assay. […] After western blot, band intensities were quantified by densitometry analysis using Image J software. The assay was repeated three times. GraphPad Prism (v4.03) software was used to determine apparent Kd value for RgA using a nonlinear regression.

[3] = system: Jurkat T FKBP knock out cells; experiment: [3H]-2DG uptake in Jurkat T FKBP12, FKBP51, FKBP52 knock out cells; assay type: cell-based, human; conditions: Jurkat T FKBP12, FKBP51, FKBP52 KO versus WT
Description: To further determine the dependence of RgA on endogenous FKBP, three major isoforms of FKBP, FKBP12, FKBP51 and FKBP52 were knocked out using CRISPR-Cas9 in Jurkat T cells. Guo et al., Nat. Chem. 2019, 11, 254-263. Unlike ENT1 inhibitor rapacodin, Guo et al., Nat.
as §1

GLUT1 [4] = target: T1, GLUT1; experiment: rapafucin 2D microarray screen with GLUT1-containing cell lysate; assay type: binding; conditions: signal-to-background ratio, 2D surface, same lysate and conditions
From the text: Once stock solutions of the rapafucin library were arrayed on the 2D or 3D surface and most of solvent carrier was evaporated, the crosslinking reaction was initiated by irradiating the surfaces with 365-nm wavelength UV light. Kawatani and Osada, Medchemcomm 2014, 5, 277-287. […] To screen for GLUT1-interacting rapafucins, GLUT1 was stably overexpressed in HEK293T cells and generated cell lysates containing detergent-solubilized recombinant GLUT1 (FIG. 10). The GLUT1-containing cell lysate was then incubated on both 2D and 3D rapafucin microarrays. After washing the slides to remove unbound proteins, the bound GLUT1 protein was detected with anti-GLUT1 antibodies, followed by visualization with Cy5-labeled secondary antibodies using a microarray scanner. Rapafucins were scored as positive hits when the corresponding SBR was greater than 3. Based on this criterion, a total of 17 rapafucin hits and one positive control BAY-876, a specific GLUT1 inhibitor, Siebeneicher et al., ChemMedChem 2016, 11, 2261-2271, were identified on the 3D rapafucin microarray. In contrast, only one hit (WL13-F11, also among the 17 hits identified from the 3D rapafucin microarray) was identified on the 2D rapafucin microarray (Table 1, FIG. 11).
In the optimization experiments, the slides were incubated with 50 nM purified recombinant FKBP12 for 1 hour, while in the GLUT1 screening, 10 mg/mL of cell lysate containing DDM-solubilized GLUT1 from GLUT1 overexpressed HEK293T was incubated for 1 hour. Successively, primary antibody and CY5 labeled secondary antibody were added for 1 hour. The chips were washed in buffer A for 5 mins 3 times after the sample and antibodies incubation. After centrifugation, the dried chips were scanned by a microarray scanner (Genepix, US) at 635-nm wavelength. The final result was analyzed by GenePix software.

Jurkat T [5] = experiment: [3H]-2DG uptake assay in Jurkat T cells; assay type: cell-based, human
Description: Hay, Nat. Rev. […] To determine whether RgA could inhibit glucose uptake in cancer cell lines in addition to A549, the impact of RgA on [3H]-2DG uptake in six other cancer cell lines, including HCC1954, MCF-7, PANC10.05, Jurkat T, HeLa, and RKO was measured (FIG. 3A, Table 3).
as §1

CCC(C)C1C(=O)NCC(=O)N(C)CCC=CC(=O)OCC(C)(C)C(=O)C(=O)N2CCCCC2C(=O)OC(CCc2ccc(OC)c(OC)c2)c2cccc(c2)NC(=O)CCC(=O)N(C)C(CC(C)C)C(=O)NC(Cc2ccccc2)C(=O)N1C (centres unmarked) [JW11-D2, Rapaglutin A]
EC50 (DLD1 GLUT1 KO; DLD1 GLUT1 knockout): 27.1 ± 3.6 nM
inhibitory activity in GLUT1 knock out cells (DLD1 GLUT1 KO; DLD-1 GLUT1 knock out versus wild type): retained its inhibitory activity
IC50 (Jurkat T [1]): 132 nM
IC50 (RKO): 114 nM
Kd (GLUT1 [2]): 78 nM
effect of knockout of three FKBP isoforms on sensitivity of cells [3]: negligible effects
2D SBR (GLUT1 [4]): <3.0
IC50 (Jurkat T [5]): 10.1 nM
